The source of these data is PMC5625157, “Lack of clinically important PK interaction between coformulated ledipasvir/sofosbuvir and rilpivirine/emtricitabine/tenofovir alafenamide” (Pharmacology Research & Perspectives, 2017).

Data set [1] in a line: Phase 1 crossover drug-drug interaction study, plasma pharmacokinetics by HPLC-MS/MS, non-compartmental analysis.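 For all read-outs here: blood sampled at steady state on final dosing day, predose through 24 h after dose, study drug given shortly after standardized breakfast, with isotopically labeled internal standards.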 As to conditions: for C tau / AUC / Cmax / AUC(0-t): mean (%CV); for AUC / Cmax / half-life / Tmax / AUC(0-t): human; for AUC: AUCtau, healthy subjects, fed, multiple dose; for Cmax: C max; for effect of coadministered LDV/SOF on exposure (C max, AUC tau): LDV/SOF + R/F/TAF vs R/F/TAF; for effect of coadministered LDV/SOF on exposure (C max, AUC tau) / effect of coadministered R/F/TAF on exposure (C max, AUC tau): result in words; for Tmax: T max; for effect of coadministered R/F/TAF on exposure (C max, AUC tau): LDV/SOF + R/F/TAF vs LDV/SOF; for AUC(0-t): AUClast.
Protocol: (§1) This study was a randomized, open‐label, single‐center, multiple‐dose, 3‐way, 6‐sequence, crossover Phase 1 study in healthy adults under fed conditions (approximately 600 calories, 27% fat). The treatments were LDV/SOF 90/400 mg (Treatment A), R/F/TAF 25/200/25 mg (Treatment B), and LDV/SOF+R/F/TAF (Treatment C).
(§2) Patients were administered the study drug within 5 minutes of completing the standardized breakfast. Serial blood samples for PK assessments were collected on the last day of each dosing sequence at the following time points: predose (≤5 min), 0.25, 0.5, 0.75, 1, 1.5, 2, 3, 4, 4.5, 5, 6, 8, 10, 12, 18, and 24 hours after the administration of the dose. Subjects were restricted from food intake until after the 4‐hour PK blood sampling time point.
(§3) Plasma concentrations of LDV, SOF, GS‐566500, GS‐331007, RPV, FTC, TAF, and TFV were determined by validated high‐performance liquid chromatography/tandem mass spectrometry (HPLC–MS/MS) methods with multiple reaction monitoring and electrospray ionization in the positive mode for LDV, RPV, FTC, TAF, and TFV, and in the negative mode for SOF, GS‐566500, and GS‐331007. Isotopically labeled internal standards (^2H, ^13C, and/or ^15N) were used for each analyte. […] Concentrations below the calibrated ranges of the methods were reported as below the limit of quantitation (BLQ); samples with concentrations above the calibrated ranges of the methods were diluted with blank plasma prior to analysis and the appropriate dilution factor was applied to the result. For each method, the results of within‐run (intra‐assay) and between‐run (inter‐assay) precision assessments were reported as the coefficients of variation, each expressed as a percentage (%CV), and the results of accuracy assessments were reported as the relative error values expressed as percentages (%RE). […] The calibrated ranges of the method were 1–2000 ng/mL for LDV, 5–2500 ng/mL for SOF, 10–5000 ng/mL for GS‐566500 and GS‐331007, 1 to 500 ng/mL for RPV, 5 to 3000 ng/mL for FTC, 1 to 1000 ng/mL for TAF, and 0.3–300 ng/mL for TFV.
(§4) Samples BLQ of bioanalytical assays occurring before the achievement of the first quantifiable concentration were assigned a value of zero to prevent overestimation of the initial area under the plasma concentration–time curve (AUC) and at all other time points were treated as missing data in WinNonlin. For summary statistics, samples BLQ at predose time were zero and postdose time points were assigned one‐half the value of the lower limit of quantitation.
(§5) Pharmacokinetic parameters were estimated using standard non‐compartmental methods in conjunction with the linear/log trapezoidal rule (Phoenix WinNonlin®, version 6.3; Certara USA, Inc., Princeton, NJ).
(§6) The primary endpoints were the PK parameters AUCtau, C max, and C tau of RPV, FTC, LDV, and GS‐331007; AUClast and C max of TAF; AUCtau and C max of SOF and GS‐566500. The secondary endpoints were the PK parameters AUCtau, C max, and C tau of TFV; T max, Clast, and Tlast of RPV, FTC, TAF, TFV, LDV, SOF, GS‐566500, and GS‐331007.
(§7) Plasma concentrations and PK parameters were summarized by treatment using descriptive statistics.

On the set-up of data set [2]: method as in German et al. 2014. The note with it: ref German et al. 2014, cited from earlier work.
The nature of a further data set: clinical. As to conditions: human, in vivo; for AUC: AUCtau, healthy subjects, fed, multiple dose; for AUC / Cmax: plasma, mean (%CV); for Cmax: C max; for half-life: median (first quartile, third quartile).
For data set [3] the following is noted: in vivo; for C max / T max / t 1/2: human.
Protocol: as §1, §2, §3, §4, §5, §6, §7
The conditions of data set [4]: cited from earlier work.
Where [5] appears, read: Reference: R/F/TAF (N = 42), plasma.
Where [6] appears, read: Test: LDV/SOF + R/F/TAF (N = 42), plasma.
Setting [7] is: plasma, oral, Reference: R/F/TAF (N = 42), plasma.
Setting [8] is: plasma, oral, Test: LDV/SOF + R/F/TAF (N = 42), plasma.
Setting [9] is: plasma, oral, t 1/2, Reference: R/F/TAF (N = 42), median (first quartile, third quartile).
The mark [10] stands for this setting: plasma, oral, t 1/2, Test: LDV/SOF + R/F/TAF (N = 42), median (first quartile, third quartile).
Where [11] appears, read: test LDV/SOF + R/F/TAF vs reference R/F/TAF.
The mark [12] stands for this setting: Test: LDV/SOF + R/F/TAF (N = 42).
The mark [13] stands for this setting: t 1/2, Reference: LDV/SOF (N = 41).
The mark [14] stands for this setting: t 1/2, Test: LDV/SOF + R/F/TAF (N = 42).
[15] abbreviates: Reference: LDV/SOF (N = 41), median (first quartile, third quartile).
Where [16] appears, read: test LDV/SOF + R/F/TAF vs reference LDV/SOF.
Where [17] appears, read: in vivo, Reference: R/F/TAF (N = 42), plasma.
The mark [18] stands for this setting: in vivo, Test: LDV/SOF + R/F/TAF (N = 42), plasma.

Read-outs that look alike come from different tables or passages of the source.

Protocol for clinical: as §1, §2, §3, §4, §5, §6, §7

As a reminder, the AUC is the area under the concentration-time curve, a measure of exposure. One may read the Cmax as the peak of the concentration-time curve. By half-life is commonly meant how long it takes for the measured level to halve. Take `C[C@H](Cn1cnc2c(N)ncnc21)OCP(=O)(O)O` [TFV, tenofovir]: in data set [1] (setting [5]), the C tau is listed as 9 (25) ng/mL. For the same molecule, in data set [1] (setting [6]), the C tau is reported as 17 (22) ng/mL. In data set [1] (setting [7]), this molecule gave an AUC of 268 ng·h/mL and a Cmax of 16 ng/mL. In data set [1] (setting [8]), the AUC was found to be 467 ng·h/mL and the Cmax came to 25 ng/mL. Moreover, in data set [1] (setting [9]), the half-life is 32 h. Besides, in data set [1] (setting [10]), the half-life is 44.5 h. Moreover, in data set [1] (setting [11]), the “GLSM ratio (test/reference) of AUCtau” value turned out to be 175%, the “GLSM ratio (test/reference) of C max” value was 162% and the “GLSM ratio (test/reference) of C tau” value was 185%. For the same molecule, the “increase in TFV exposure” value in data set [2] (R/F/TDF coadministered with LDV/SOF compared to R/F/TDF alone) was 40%. Also, the TFV exposure in data set [2] (R/F/TDF coadministered with LDV/SOF) is given as 4,780 ng·h/mL.

Broadly, the Tmax is the time at which the peak concentration occurs. For the molecule `Nc1nc(=O)n([C@@H]2CS[C@H](CO)O2)cc1F` [FTC, emtricitabine], the “effect of coadministered LDV/SOF on exposure (C max, AUC tau)” value (“effect of coadministered LDV/SOF” for short) in data set [1] is “no effect”. Further, the C tau is 88 (28) ng/mL in data set [1] (setting [5]) and 89 (25) ng/mL in data set [1] (setting [6]). Also, the AUC in data set [1] (setting [7]) and in data set [1] (setting [8]) was 10800 ng·h/mL each time. Moreover, the Cmax in data set [1] (setting [7]) amounted to 1710 ng/mL; in data set [1] (setting [8]), 1650 ng/mL. Further, the Tmax was 2.5 h in data set [1] (plasma, oral, Reference: R/F/TAF (N = 42), median (first quartile, third quartile)) and 3 h in data set [1] (plasma, oral, Test: LDV/SOF + R/F/TAF (N = 42), median (first quartile, third quartile)). Further, the half-life is 6.5 h in data set [1] (setting [9]) and 5.1 h in data set [1] (setting [10]). For the same molecule, in data set [1] (setting [11]), the “GLSM ratio (test/reference) of AUCtau” value came to 100%. Besides, in data set [1] (setting [11]), the “GLSM ratio (test/reference) of C max” value is on record as 97%. The “GLSM ratio (test/reference) of C tau” value in data set [1] (setting [11]) is reported as 102%.

Consider `CC(C)OC(=O)[C@H](C)N[P@](=O)(OC[C@H]1O[C@@H](n2ccc(=O)[nH]c2=O)[C@](C)(F)[C@@H]1O)Oc1ccccc1` [SOF, sofosbuvir], for which the figures for the AUC in the data set “clinical” (Reference: LDV/SOF (N = 41)) and in “clinical” (setting [12]) were 2910 ng·h/mL and 3070 ng·h/mL, respectively. Besides, the results for the Cmax in the data set “clinical” (Reference: LDV/SOF (N = 41)) and in the data set “clinical” (setting [12]) were 1470 ng/mL and 1390 ng/mL, respectively. Moreover, the half-life in the data set “clinical” (setting [13]) and in “clinical” (setting [14]) was 0.5 h throughout. The “effect of coadministered R/F/TAF on exposure (C max, AUC tau)” value in data set [1] is listed as “did not noticeably increase”; in data set [1] (listed as sofosbuvir) it was “no relevant effect”. The T max in data set [1] (setting [15]) is on record as 2.0 (1.5, 3.0) h. Also, the “GLSM ratio (test/reference) of AUCtau” value in data set [1] (setting [16]) is recorded as 105%. In addition, in data set [1] (setting [16]), the “GLSM ratio (test/reference) of C max” value was 96%.

On to `C[C@@]1(F)[C@H](O)[C@@H](CO)O[C@H]1n1ccc(=O)[nH]c1=O` [GS‐331007], for which, in data set [3], the C max is listed as 884 (14) ng/mL; the T max is recorded as 4.5 (4.0, 4.5) h; the “t 1/2” value was 16.7 (13.8, 21.9) h; the C tau is reported as 340 (16) ng/mL.

The term AUC(0-t) denotes the area under the concentration-time curve up to a stated or last time point. For `CC(C)OC(=O)[C@H](C)N[P@](=O)(CO[C@H](C)Cn1cnc2c(N)ncnc21)Oc1ccccc1` [TAF, tenofovir alafenamide], in data set [1], the “effect of coadministered LDV/SOF” value is “no effect”. Moreover, the “t 1/2” value in data set [1] (Reference: R/F/TAF (N = 42), median (first quartile, third quartile)) is reported as 0.5 (0.4, 0.6) h. In data set [1] (setting [17]), the AUC(0-t) came to 277 ng·h/mL and the Cmax is 200 ng/mL. In addition, in data set [1] (setting [18]), the AUC(0-t) amounted to 362 ng·h/mL and the Cmax stood at 205 ng/mL. Moreover, the Tmax in data set [1] (in vivo, Reference: R/F/TAF (N = 42), median (first quartile, third quartile)) worked out at 1.5 h. In data set [1] (in vivo, Test: LDV/SOF + R/F/TAF (N = 42), median (first quartile, third quartile)), the Tmax turned out to be 1.8 h. Further, in data set [1] (setting [11]), the “GLSM ratio (test/reference) of AUClast” value is 132% and the “GLSM ratio (test/reference) of C max” value came to 103%. For the same molecule, in data set [4] (TAF 25 mg vs TDF 300 mg, reference not given), the “lower plasma tenofovir exposure compared to TDF 300 mg” value was ~ 90%. For the same molecule, the “less plasma TFV exposures than TDF” value in data set [4] (TAF vs TDF, ref Sax et al. 2015, Zack et al. 2016, Gilead Sciences Inc, 2017b) was 80–90%.

For the molecule `Cc1cc(/C=C/C#N)cc(C)c1Nc1ccnc(Nc2ccc(C#N)cc2)n1` [RPV, rilpivirine], the Tmax in “clinical” stood at 5 h. Besides, the “effect of coadministered LDV/SOF” value in data set [1] is recorded as “no effect”. Moreover, the C tau in data set [1] (setting [5]) is recorded as 109 (32) ng/mL; in data set [1] (setting [6]) it was 100 (26) ng/mL. In data set [1] (Test: LDV/SOF + R/F/TAF (N = 42), median (first quartile, third quartile)), the T max is given as 4.0 (4.0, 5.0) h. Further, the AUC in data set [1] (setting [7]) was determined as 3040 ng·h/mL; in data set [1] (setting [8]), 2860 ng·h/mL. The maximum concentration (Cmax) stood at 203 ng/mL in data set [1] (setting [7]) and 197 ng/mL in data set [1] (setting [8]). The figures for the half-life in data set [1] (setting [9]) and in data set [1] (setting [10]) were 32.8 h and 30.4 h, respectively. In addition, the “GLSM ratio (test/reference) of AUCtau” value in data set [1] (setting [11]) is reported as 95%. Further, the “GLSM ratio (test/reference) of C max” value in data set [1] (setting [11]) stood at 97%. The “GLSM ratio (test/reference) of C tau” value in data set [1] (setting [11]) came out at 93%.

In the case of `C[C@H](NP(=O)(O)OC[C@H]1O[C@@H](n2ccc(=O)[nH]c2=O)[C@](C)(F)[C@@H]1O)C(=O)O` [GS‐566500], in data set [3], the C max is 510 (20) ng/mL; the T max was 3.0 (2.0, 4.0) h; the “t 1/2” value is given as 2.2 (2.0, 2.5) h.

Consider `COC(=O)N[C@H](C(=O)N1CC2(CC2)C[C@H]1c1ncc(-c2ccc3c(c2)C(F)(F)c2cc(-c4ccc5nc([C@@H]6[C@H]7CC[C@H](C7)N6C(=O)[C@@H](NC(=O)OC)C(C)C)[nH]c5c4)ccc2-3)[nH]1)C(C)C` [LDV, ledipasvir], for which the values for the AUC in “clinical” (Reference: LDV/SOF (N = 41)) and in the data set “clinical” (setting [12]) were 11600 ng·h/mL and 11900 ng·h/mL, respectively. For the same molecule, the Cmax in the data set “clinical” (Reference: LDV/SOF (N = 41)) was 647 ng/mL; in the data set “clinical” (setting [12]), 658 ng/mL. For the same molecule, the results for the half-life in the data set “clinical” (setting [13]) and in the data set “clinical” (setting [14]) were 32.6 h and 31.3 h, respectively. Also, the “effect of coadministered R/F/TAF on exposure (C max, AUC tau)” value in data set [1] is given as “did not noticeably increase”; in data set [1] (listed as ledipasvir) it was “no relevant effect”. For the same molecule, the T max in data set [1] (setting [15]) is listed as 4.5 (4.5, 5.0) h. The C tau in data set [1] (Reference: LDV/SOF (N = 41), plasma) is 420 (46) ng/mL; in data set [1] (setting [6]) it was 434 (47) ng/mL. The “GLSM ratio (test/reference) of AUCtau” value in data set [1] (setting [16]) is given as 102%. Also, the “GLSM ratio (test/reference) of C max” value in data set [1] (setting [16]) came to 101%. In addition, the “GLSM ratio (test/reference) of C tau” value in data set [1] (setting [16]) was found to be 102%.
